Assay [1] has as its system KRAS G12C mutant MIA PaCa-2 cells. The assay can be described thus: Cell proliferation inhibition experiment, 3D spheroid, CellTiter-Glo, MIA PaCa-2. The note with it: Homo sapiens, MIA PaCa-2, 120 h, 3D cell model in 384-well spheroid plate, 5 days, CellTiter-Glo; read-out: MIA-PaCa2 IC50. It is filed as cell-based, human. The essentials:
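200 MIA PaCa-2 cells/well grown overnight as 3D spheroids, then exposed to 3.16-fold compound dilutions (0.1% DMSO final) for 5 days. Viability read by CellTiter-Glo luminescence; inhibition calculated against DMSO and medium-only controls, and IC50 fitted by four-parameter model.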
On the technique in general: In ATP-based viability assays light output follows the ATP content of the culture.

For assay [2], the system named is phosphorylated ERK downstream of KRAS G12C in MIA PaCa2 cells. The assay can be described thus: Cell p-ERK detection experiment (HTRF) in MIA PaCa2. The conditions noted are these: Homo sapiens, MIA PaCa-2, 2 h, MIA PaCa2 cells, 2 hours with compound, Advance ERK phospho-T202/Y204 HTRF kit; read-out: p-ERK IC50. It is filed as cell-based, human. An outline of the steps:
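KRAS G12C-mutant MIA PaCa2 cells (2.5E4 per well, overnight) exposed 2 h to a 3.16-fold compound dilution series at 0.1% DMSO. Lysates probed 4 h with HTRF antibodies to ERK phospho-T202/Y204; inhibition versus DMSO control and blank, IC50 by four-parameter fit.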
Background: Time-resolved FRET reads energy transfer from a long-lived donor to a nearby acceptor.

Consider `C=CC(=O)N1CCN2C(=O)c3c(N4C[C@@H](N(C)CC(F)(F)F)CC4(C)C)nc(-c4ccccc4F)c(Cl)c3OC[C@H]2C1` (single isomer, unassigned) [Z491], for which the figures for the IC50 in assay [1] and in assay [2] were 7 nM and 27 nM, respectively.
For the molecule `C=CC(=O)N1CCN2C(=O)c3c(N4C[C@@H](C(=O)O)CC4(C)C)nc(-c4c(O)cccc4F)c(Cl)c3OC[C@H]2C1` (single isomer, unassigned) [Z458-1], the IC50 in assay [1] is more than 1000 nM; in assay [2], 3560 nM.
Consider `C=CC(=O)N1CCN2C(=O)c3c(NC45CC(C4)C5)nc(-c4c(O)cccc4F)c(Cl)c3OC[C@H]2C1` [Z41, (6aR)-8-acryloyl-1-(bicyclo [1.1.1]pentan-1-ylamino)-4-chloro-3-(2-fluoro-6-hydroxyphenyl)-6,6a,7,8,9,10-hexahydro-12H-pyrazino[2,1-c]pyrido[3,4-f][1,4]oxazepin-12-one], for which the IC50 in assay [1] is 73 nM; in assay [2], 322 nM.
As for `C=CC(=O)N1CCN2C(=O)c3c(N4CCN(C)C[C@@H]4C)nc(-c4c(F)cccc4OC)c(F)c3OC[C@H]2C1` [Z451, (6aR)-8-acryloyl-1-((S)-2,4-dimethylpiperazin-1-yl)-4-fluoro-3-(2-fluoro-6-methoxyphenyl)-6,6 a,7,8,9,10-hexahydro-12H-pyrazino[2,1-c]pyrido[3,4-f][1,4]oxazepin-12 (6 aH)-one], the results for the IC50 in assay [1] and in assay [2] were 363 nM and 1480 nM, respectively.
Turning to `C=CC(=O)N1CCN2C(=O)c3c(N4CC(N5CCN(C)CC5)CC4(C)C)nc(-c4c(O)cccc4F)c(Cl)c3OC[C@H]2C1` (stereo partly drawn) [Z467, (6aR)-8-acryloyl-4-chloro-1-(2,2-dimethyl-4-(4-methylpiperazin-1-yl)pyrrolidin-1-yl)-3-(2-fluoro-6-hydroxyphenyl)-6,6a,7,8,9,10-hexahydro-12H-pyrazino[2,1-c]pyrido[3,4-f][1,4]oxazepin-12-one], the IC50 in assay [1] is 1 nM; in assay [2], 11 nM.
Turning to `C=CC(=O)N1CCN2C(=O)c3c(N4C[C@H](N5CCN(C)CC5)CC4(C)C)nc(-c4c(O)cccc4F)c(Cl)c3OC[C@H]2C1` (single isomer, unassigned) [Z469-2], the values for the IC50 in assay [1] and in assay [2] were 4 nM and 30 nM, respectively.
For `C=CC(=O)N1CCN2C(=O)c3c(N4CC(N(C)CC(F)(F)F)CC4(C)C)nc(-c4ccccc4F)c(Cl)c3OC[C@H]2C1` (mixture of isomers) [Z491a, (6aR)-8-acryloyl-4-chloro-1-(2,2-dimethyl-4-(methyl(2,2,2-trifluoroethyl)amino)pyrrolidin-1-yl)-3-(2-fluorophenyl)-6,6a,7,8,9,10-hexahydro-12H-pyrazino[2,1-c]pyrido[3,4-f][1,4]oxazepin-12-one], the IC50 came to 10 nM in assay [1] and 37 nM in assay [2].
For the molecule `C=CC(=O)N1CCN2C(=O)c3c(N4CC[C@H](N(C)C)C4(C)C)nc(-c4ccccc4F)c(Cl)c3OC[C@H]2C1` [Z502-2, (6aR)-8-acryloyl-4-chloro-1-(3-(dimethylamino)-2,2-dimethylpyrrolidin-1-yl)-3-(2-fluorophenyl)-6,6a,7,8,9,10-hexahydro-12H-pyrazino[2,1-c]pyrido[3,4-f][1,4]oxazepin-12(6aH)-one], the IC50 in assay [1] came to 24.1 nM; in assay [2], 124 nM.
Taken in the same sequence, the figures for `C=CC(=O)N1CCN2C(=O)c3c(N4CCN(C)C[C@@H]4C)nc(-c4ccccc4F)c(Cl)c3OC[C@H]2C1` [Z407-1, (R)-8-acryloyl-4-chloro-1-((S)-2,4-dimethylpiperazin-1-yl)-3-(2-fluorophenyl)-6,6a,7,8,9,10-hexahydro-12H-pyrazino[2,1-c]pyrido[3,4-f][1,4]oxazepin-12-one] were 39 nM and 144 nM.
Turning to `C=CC(=O)N1CCN2C(=O)c3c(N4CCC5CC54)nc(-c4c(O)cccc4F)c(Cl)c3OC[C@H]2C1` (stereo partly drawn) [Z39, (6aR)-8-acryloyl-1-(2-azabicyclo[3.1.0]hexart-2-yl)-4-chloro-3-(2-fluoro-6-hydroxyphenyl)-6,6a,7,8,9,10-hexahydro-12H-pyrazino[2,1-c]pyrido[3,4-f][1,4]oxazepin-12-one], the IC50 in assay [1] stood at 20 nM; in assay [2], 140 nM.
On the same counts, the results for `C=CC(=O)N1CCN2C(=O)c3c(N4C[C@@H](N(C)C)CC4(C)C)nc(-c4c(F)ccc(F)c4O)c(Cl)c3OC[C@H]2C1` [Z475-1, (6aR)-8-acryloyl-4-chloro-3-(3,6-difluoro-2-hydroxyphenyl)-1-((S)-4-(dimethylamino)-2,2-dimethylpyrrolidin-1-yl)-6,6a,7,8,9,10-hexahydro-12H-pyrazino[2,1-c]pyrido[3,4-f][1,4]oxazepin-12-one] are 5 nM and 35 nM.
On the same counts, the results for `C=CC(=O)N1CCN2C(=O)c3c(N4C[C@@H](N5CCN(C)CC5)C[C@@H]4C)nc(-c4ccccc4F)c(Cl)c3OC[C@H]2C1` [Z470-2] are 4 nM and 24 nM.
Take `C=CC(=O)N1CCN2C(=O)c3c(N4C[C@@H](N(C)CCF)CC4(C)C)nc(-c4ccccc4F)c(Cl)c3OC[C@H]2C1` (single isomer, unassigned) [Z660-1]: the IC50 in assay [1] came out at 7.7 nM; in assay [2], 19 nM.
Turning to `C=CC(=O)N1CCN2C(=O)c3c(N4CCC[C@@H]4C)nc(-c4c(O)cccc4F)c(Cl)c3OC[C@H]2C1` [Z49, (6aR)-8-acryloyl-1-((S)-2-methylpyrrolidin-1-yl)-4-chloro-3-(2-fluoro-6-hydroxyphenyl)-6,6a,7,8,9,10-hexahydro-12H-pyrazino[2,1-c]pyrido[3,4-f][1,4]oxazepin-12-one], the IC50 in assay [1] amounted to 7 nM; in assay [2] it was 62 nM.
Take `C=CC(=O)N1CCN2C(=O)c3c(N4C[C@H](N(C)CCOC)CC4(C)C)nc(-c4ccccc4F)c(Cl)c3OC[C@H]2C1` (single isomer, unassigned) [Z406-1]: the IC50 amounted to 10 nM in assay [1] and 73 nM in assay [2].
Regarding `C=CC(=O)N1CCN2C(=O)c3c(N4CC(O)CC4(C)C)nc(-c4c(F)cccc4OC)c(F)c3OC[C@H]2C1` (single isomer, unassigned) [Z450], the 50% inhibitory concentration (IC50) stood at 34 nM in assay [1] and 141 nM in assay [2].
For the molecule `C=CC(=O)N1CCN2C(=O)c3c(N4C[C@@H](NCC(F)(F)F)CC4(C)C)nc(-c4ccccc4F)c(Cl)c3OC[C@H]2C1` (single isomer, unassigned) [Z662-1], the 50% inhibitory concentration (IC50) in assay [1] came out at 11 nM; in assay [2], 32.6 nM.
For `C=CC(=O)N1CCN2C(=O)c3c(N4CC(N5CCOCC5)CC4(C)C)nc(-c4ccccc4F)c(Cl)c3OC[C@H]2C1` (single isomer, unassigned) [Z468-1], the IC50 in assay [1] came to 16 nM; in assay [2] it was 82 nM.
As to `C=CC(=O)N1CCN2C(=O)c3c(N4C[C@@H](N5CCN(C)CC5)CC4(C)C)nc(-c4ccccc4F)c(F)c3OC[C@H]2C1` (single isomer, unassigned) [Z474-1], the IC50 was 13 nM in assay [1] and 64 nM in assay [2].
On the same counts, the results for `C=CC(=O)N1CCN2C(=O)c3c(N4C[C@@H](N(C)C)CC4(C)C)nc(-c4cccc(C)c4F)c(Cl)c3OC[C@H]2C1` (single isomer, unassigned) [Z472-1] are 74 nM and 189 nM.
`C=CC(=O)N1CCN2C(=O)c3c(N4C[C@@H](O)CC4(C)C)nc(-c4c(N)cccc4F)c(F)c3OC[C@H]2C1` [Z481, (6aR)-8-acryloyl-3-(2-amino-6-fluorophenyl)-4-fluoro-1-((S)-4-hydroxy-2,2-dimethylpyrrolidin-1-yl)-6,6a,7,8,9,10-hexahydro-12H-pyrazino[2,1-c]pyrido[3,4-f][1,4]oxazepin-12-one]: the IC50 in assay [1] worked out at 4 nM; in assay [2], 13 nM.

What is called IC50 is the concentration that inhibits the measured activity by half.

The record behind these values is US20230203060A1 (GENFLEET THERAPEUTICS (SHANGHAI) INC., priority 2020, published 2023).
